Reference: patent US20040248762A1, “Malodor counteractant compositions” (priority 2003, published 2004)
Several values for one entry are separate records, joined by “and”; a condition that tells them apart may be missing. Identical values can stand only once.

Tests used:
[1] = Synthetic axilla malodor on cotton pads, panel rating of malodor strength; design: species or system human; conditions: scale 5 overpowering to 1 not detectable; for 5% OMC + 5% Compound B (axilla malodor panel score): mixture 5% OMC + 5% Compound B
Method: 100 μl of synthetic axilla malodor was placed onto cotton pads. 0.4 g of an ethanolic solution containing 10% (wt) of a test compound identified in Table 1 was placed on each axilla malodor treated cotton pad. Each pad was allowed to dry 15 for minutes, and then evaluated using a 10-member panel after 3 hours. The test cotton pads were randomized, and each panelist was asked to check a box that represented the strength of the axilla malodor using the following scale:
In this example, the MOC effect of various mixtures of a Class A MOC compound and a Class B MOC compound (i.e., dihexyl fumerate as disclosed in Kulka, U.S. Pat. No. 3,074,892) were evaluated using the same test and malodor evaluation procedures as set forth in Example 1. Each test solution contained 5% (wt) DHF and 5% (wt) of the Class A compound identified in Table 3. The MOC effect was evaluated as in Example 1.
Various mixtures of OMC (a Class A Compound) and a Class B compound (i.e., various cyclohexyl esters as disclosed in Schleppnik '221) as identified in Table 4 below were made according to the procedure set forth in Example 1. The MOC of each mixture was evaluated using the procedure set forth in Example 1.

[2] = MOC of sweat malodor on fabric swatches; design: species or system human; conditions: summary of Table 6
Method: The following fabric treatment solutions were prepared:
1. A solution of ethanol and Cremophor (a hydrogenated ethoxylated castor oil marketed by BASF Corp., Mount Olive, N.J.) containing 10% (wt) of dihexyl fumerate (DHF).
2. A solution of ethanol and Cremophor containing 10% (wt) of OMC.
3. A solution of ethanol and Cremophor containing 5% (wt) of DHF+5% (wt) OMC.
Five (5) fabric swatches were prepared, and labeled A-E. Swatch A was designated as the control swatch with no malodor. 100 μl of sweat malodor was placed in the middle of swatches B-E. Swatch B was designated as the control swatch for the malodor. The swatches were allowed to equilibrate with the malodor for 20 minutes. Onto swatches C-E, the following solutions were sprayed:
The malodor intensity on the cotton swatches was evaluated as follows:
The malodor intensity on swatch B (Malodor Control) was identified as a 5 (overpoweringly strong) on the scale of 1-5 set forth below at every time point, and the rest of swatches were evaluated based on that standard.

| SMILES | 10% test (Compound B Alone) (axilla malodor panel score) ([1]; 10% Compound B alone, procedure of Example 1) | 5% OMC + 5% Compound B (axilla malodor panel score) ([1]; procedure of Example 1) | MOC effect on sweat malodor on fabric (in words) [2] | 10% OMC (Alone) (axilla malodor panel score) ([1]; 10% OMC alone, run beside the Compound B of that table line) |
| --- | --- | --- | --- | --- |
| CCCCCCOC(=O)/C=C/C(=O)OCCCCCC [Dihexyl Fumerate, reference compound] | 2.6 | 2.3 | had a MOC effect |  |
| CCCCC(CC)COC(=O)/C=C/c1ccc(OC)cc1 (stereo not drawn) [OMC, Octyl methoxy cinnamate] |  | acts at least additively | had a MOC effect | 3.1 and 2.6 and 3.2 |
